Source: US11773094B2, “Farnesoid X receptor agonists and uses thereof” (Metacrine, Inc., priority 2018, dated 2023)

Biological target: T1, hFXR (Homo sapiens, UniProt Q96RI1)
T1 construct: expressed in transfected cells; host or cells: CV-1 cells
T1 sequence (Q96RI1 1-486): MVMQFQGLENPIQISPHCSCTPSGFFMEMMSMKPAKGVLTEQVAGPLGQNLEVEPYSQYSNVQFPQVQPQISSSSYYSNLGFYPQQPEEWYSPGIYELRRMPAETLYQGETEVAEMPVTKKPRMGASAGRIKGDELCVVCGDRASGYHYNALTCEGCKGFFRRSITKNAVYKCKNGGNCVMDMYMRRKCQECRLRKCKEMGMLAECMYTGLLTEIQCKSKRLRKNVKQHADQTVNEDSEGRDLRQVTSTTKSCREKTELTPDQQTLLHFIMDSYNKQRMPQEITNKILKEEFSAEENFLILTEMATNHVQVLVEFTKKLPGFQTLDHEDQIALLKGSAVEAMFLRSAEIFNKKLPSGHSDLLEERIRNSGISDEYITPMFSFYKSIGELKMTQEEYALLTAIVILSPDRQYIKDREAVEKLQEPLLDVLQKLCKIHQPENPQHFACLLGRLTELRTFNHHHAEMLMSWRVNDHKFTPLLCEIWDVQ
T1 sequence (P19793 1-462 partner): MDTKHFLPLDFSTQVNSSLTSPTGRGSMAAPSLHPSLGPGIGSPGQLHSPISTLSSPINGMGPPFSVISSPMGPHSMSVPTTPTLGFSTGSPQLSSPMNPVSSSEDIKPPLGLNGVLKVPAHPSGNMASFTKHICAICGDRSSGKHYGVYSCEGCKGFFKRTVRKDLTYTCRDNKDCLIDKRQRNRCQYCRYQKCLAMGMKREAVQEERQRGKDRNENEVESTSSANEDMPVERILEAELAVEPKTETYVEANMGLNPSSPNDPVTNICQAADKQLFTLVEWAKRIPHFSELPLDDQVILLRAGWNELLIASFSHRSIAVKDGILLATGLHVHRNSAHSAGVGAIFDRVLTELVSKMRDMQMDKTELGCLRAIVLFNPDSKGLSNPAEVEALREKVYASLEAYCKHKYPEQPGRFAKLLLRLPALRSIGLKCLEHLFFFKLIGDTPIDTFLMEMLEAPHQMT
Assay: In Vitro FXR Assay (TK): TK-ECRE-luc reporter in transfected CV-1 cells
Format: cell-based
Conditions: CV-1 cells transfected with hFXR, hRXR, pCMX-YFP, 18 hrs incubation, luminescence
Protocol: Example B-1: In Vitro FXR Assay (TK)
CV-1 cells were seeded at a density of 2,000,000 cells in a T175 flask with DMEM+10% charcoal double-stripped FBS and incubated at 37° C. in 5% CO2 for 18 h (O/N).
After 18 h of incubation, the medium in the T175 flask was changed with fresh DMEM+10% charcoal super-stripped serum. In a polypropylene tube, 2500 μL OptiMEM (Life Technologies, Cat #31985-062) was combined with expression plasmids for hFXR, hRXR, TK-ECRE-luc and pCMX-YFP. The tube was then briefly vortexed and incubated at room temperature for 5 minutes. Transfection reagent (X-tremeGENE HP from Roche, Cat #06 366 236 001) was added to the OptiMEM/plasmid mixture vortexed and incubated at room temperature for 20 minutes. Following incubation, the transfection reagent/DNA mixture complex was added to cells in the T175 flask and the cells were incubated at 37° C. in 5% CO2 for 18 h (O/N).
Compounds were serially diluted in DMSO and added to transfected CV-1 cells. The cells were then incubated for 18 hrs. The next day cells were lysed and examined for luminescence.

SMILES | EC50 [nM]
COc1ccc(C23CCC(CN(c4cc(-c5coc(C(C)(C)C)n5)ccn4)C(=O)[C@H]4CC[C@H](OC(=O)N5CC(CO)C5)CC4)(CC2)CC3)cc1C [Compound 2.15, 4-((4-(2-(tert-Butyl)oxazol-4-yl)pyridin-2-yl)((4-(4-methoxy-3-methylphenyl)bicyclo[2.2.2]octan-1-yl)methyl)carbamoyl) (trans-cyclohexyl) 3-(hydroxymethyl)azetidine-1-carboxylate] | ≤ 10
COc1ccc(C23CCC(CN(c4cc(-c5cnc(C(C)(C)C)s5)ccn4)C(=O)[C@H]4CC[C@H](OC(=O)N5CCC(N(C)C)C5)CC4)(CC2)CC3)cc1C (stereo partly drawn) [Compound 2.09, 4-((4-(2-(tert-Butyl)thiazol-5-yl)pyridin-2-yl)((4-(4-methoxy-3-methylphenyl)bicyclo[2.2.2]octan-1-yl)methyl)carbamoyl)cyclohexyl 3-(dimethylamino)pyrrolidine- trans-1-carboxylate] | 10 to 1000
CCC(C)(C)n1cc(-c2ccnc(N(CC34CCC(c5ccc(OC)c(C)c5)(CC3)CC4)C(=O)[C@H]3CC[C@H](OC(=O)N4CC(O)C4)CC3)c2)cn1 [Compound 4, 4-(((4-(4-Methoxy-3-methylphenyl)bicyclo[2.2.2]octan-1-yl)methyl)(4-(1-(tert-pentyl)-1H-pyrazol-4-yl)pyridin-2-yl)carbamoyl) cyclohexyl trans-3-hydroxyazetidine-1-carboxylate] | ≤ 10
COc1ccc(C23CCC(CN(c4cc(-n5ccc(C(C)(C)C)n5)ccn4)C(=O)[C@H]4CC[C@H](OC(=O)N5CC(O)C5)CC4)(CC2)CC3)cc1C [Compound 2.35, 4-((4-(3-(tert-Butyl)-1H-pyrazol-1-yl)pyridin-2-yl)((4-(4-methoxy-3-methylphenyl)bicyclo[2.2.2]octan-1-yl)methyl)carbamoyl) cyclohexyl trans-3-hydroxyazetidine-1-carboxylate] | 10 to 1000
COc1ccc(C23CCC(CN(c4cc(-c5coc(C(C)(C)C)n5)ccn4)C(=O)[C@H]4CC[C@H](OC(=O)N5CC(S(C)(=O)=O)C5)CC4)(CC2)CC3)cc1C [Compound 2.13, 4-((4-(2-(tert-Butyl)oxazol-4-yl)pyridin-2-yl)((4-(4-methoxy-3-methylphenyl)bicyclo[2.2.2]octan-1-yl)methyl)carbamoyl) (trans-cyclohexyl) 3-(methylsulfonyl)azetidine-1-carboxylate] | ≤ 10
COc1ccc(C23CCC(CN(c4cc(-c5cnn(C(C)(C)C)c5)ccn4)C(=O)[C@H]4CC[C@H](OC(=O)N5CC[C@@H](O)C5)CC4)(CC2)CC3)cc1C [Compound 2.33, (R)-4-((4-(1-(tert-Butyl)-1H-pyrazol-4-yl)pyridin-2-yl)((4-(4-methoxy-3-methylphenyl)bicyclo[2.2.2]octan-1-yl)methyl)carbamoyl) cyclohexyl trans-3-hydroxypyrrolidine-1-carboxylate] | ≤ 10
COc1ccc([C@H]2CC[C@H](CN(c3cc(-c4coc(C(C)(C)C)n4)ccn3)C(=O)[C@H]3CC[C@H](OC(=O)N4CC(O)C4(C)C)CC3)CC2)cc1C (stereo partly drawn) [Compound 1.05, trans-4-((4-(2-(tert-Butyl)oxazol-4-yl)pyridin-2-yl)(((trans)-4-(4-methoxy-3-methylphenyl)cyclohexyl)methyl)carbamoyl) cyclohexyl 3-hydroxy-2,2-dimethylazetidine-1-carboxylate] | 10 to 1000
COc1ccc(C23CCC(CN(c4cc(-c5coc(C(C)(C)C)n5)ccn4)C(=O)[C@H]4CC[C@H](OC(=O)N5CC(C)(O)C5)CC4)(CC2)CC3)cc1C [Compound 2.12, 4-((4-(2-(tert-Butyl)oxazol-4-yl)pyridin-2-yl)((4-(4-methoxy-3-methylphenyl)bicyclo[2.2.2]octan-1-yl)methyl)carbamoyl) (trans-cyclohexyl) 3-hydroxy-3-methylazetidine-1-carboxylate] | ≤ 10
COc1ccc([C@H]2CC[C@H](CN(c3cc(-c4coc(C(C)(C)C)n4)ccn3)C(=O)[C@H]3CC[C@H](OC(=O)N4CC(O)C4)CC3)CC2)cc1C [Compound 1.04, trans-4-((4-(2-(tert-Butyl)oxazol-4-yl)pyridin-2-yl)(((trans)-4-(4-methoxy-3-methylphenyl)cyclohexyl)methyl)carbamoyl) cyclohexyl 3-hydroxyazetidine-1-carboxylate] | 10 to 1000
COc1c(C)cc(C23CCC(CN(c4cncc(-c5cnn(C(C)(C)C)c5)n4)C(=O)[C@H]4CC[C@H](OC(=O)N5CC(O)C5)CC4)(CC2)CC3)cc1C [Compound 3.13, 4-((6-(1-(tert-Butyl)-1H-pyrazol-4-yl)pyrazin-2-yl)((4-(4-methoxy-3,5-dimethylphenyl)bicyclo[2.2.2]octan-1-yl)methyl)carbamoyl) (trans-cyclohexyl) 3-hydroxyazetidine-1-carboxylate] | 10 to 1000
CCC(C)(CC)n1cc(-c2ccnc(N(CC34CCC(c5ccc(OC)c(C)c5)(CC3)CC4)C(=O)[C@H]3CC[C@H](OC(=O)N4CC(O)C4)CC3)c2)cn1 [Compound 4.04, 4-(((4-(4-Methoxy-3-methylphenyl)bicyclo[2.2.2]octan-1-yl)methyl)(4-(1-(3-methylpentan-3-yl)-1H-pyrazol-4-yl)pyridin-2-yl)carbamoyl)cyclohexyl trans-3-hydroxyazetidine-1-carboxylate] | ≤ 10
COc1ccc([C@H]2CC[C@H](CN(c3cc(-c4cnc(C(C)(C)C)s4)ccn3)C(=O)[C@H]3CC[C@H](OC(=O)NC4CCOCC4)CC3)CC2)cc1C [Compound 1] | 10 to 1000
COc1ccc(C23CCC(CN(c4cc(-c5cnc(C(C)(C)C)s5)ccn4)C(=O)[C@H]4CC[C@H](OC(=O)N5CC(CO)C5)CC4)(CC2)CC3)cc1C [Compound 3.08, 4-((4-(2-(tert-Butyl)thiazol-5-yl)pyridin-2-yl)((4-(4-methoxy-3-methylphenyl)bicyclo[2.2.2]octan-1-yl)methyl)carbamoyl) (trans-cyclohexyl) 3-(hydroxymethyl)azetidine-1-carboxylate] | ≤ 10
COc1ccc([C@H]2CC[C@H](CN(c3cc(-c4coc(C(C)(C)C)n4)ccn3)C(=O)[C@H]3CC[C@H](OC(=O)N4CCC(O)CC4)CC3)CC2)cc1C [Compound 1.06, trans-4-((4-(2-(tert-Butyl)oxazol-4-yl)pyridin-2-yl)(((trans)-4-(4-methoxy-3-methylphenyl)cyclohexyl)methyl)carbamoyl) cyclohexyl 4-hydroxypiperidine-1-carboxylate] | 10 to 1000
COc1ccc(C23CCC(CN(c4cc(-c5cnn(C(C)(C)C)c5)ccn4)C(=O)[C@H]4CC[C@H](OC(=O)NC5CCOCC5)CC4)(CC2)CC3)cc1C [Compound 3.01, 4-((4-(1-(tert-Butyl)-1H-pyrazol-4-yl)pyridin-2-yl)((4-(4-methoxy-3-methylphenyl)bicyclo[2.2.2]octan-1-yl)methyl)carbamoyl) cyclohexyl (tetrahydro-2H-pyran-4-yl)trans-carbamate] | ≤ 10
COc1ccc(C23CCC(CN(c4cc(-c5cnn(C(C)(C)C)c5)ccn4)C(=O)[C@H]4CC[C@H](OC(=O)N5CC(CS(C)(=O)=O)C5)CC4)(CC2)CC3)cc1C [Compound 2.24, 4-((4-(1-(tert-Butyl)-1H-pyrazol-4-yl)pyridin-2-yl)((4-(4-methoxy-3-methylphenyl)bicyclo[2.2.2]octan-1-yl)methyl)carbamoyl) (trans-cyclohexyl) 3-((methylsulfonyl)methyl) azetidine-1-carboxylate] | ≤ 10
COc1ccc(C23CCC(CN(c4cc(-c5coc(C(C)(C)C)n5)ccn4)C(=O)[C@H]4CC[C@H](OC(=O)N5CC(OCCO)C5)CC4)(CC2)CC3)cc1C [Compound 2.14, 4-((4-(2-(tert-Butyl)oxazol-4-yl)pyridin-2-yl)((4-(4-methoxy-3-methylphenyl)bicyclo[2.2.2]octan-1-yl)methyl)carbamoyl) (trans-cyclohexyl) 3-(2-hydroxyethoxy)azetidine-1-carboxylate] | ≤ 10
